In publication PMC8867545 (ACS Omega, 2022) one finds Km data, which are given here for two compounds.

The test system of assay [1] is β-glucosidase (β-Glcase). The assay is described as follows: UV-vis absorption at […] nm, Lineweaver-Burk. The assay is classed as biochemical, Prunus dulcis. To be noted: 1x PBS pH 5.33, room temperature, 100 μg/mL enzyme, 5-200 μM substrate.
The subject of assay [2] is β-glucosidase (β-Glcase). The assay is described as follows: UV-vis absorption at […] nm, Lineweaver-Burk. As to conditions: 1x PBS pH 5.33, room temperature, 100 μg/mL enzyme, 10-500 μM substrate. The assay is classed as biochemical, Prunus dulcis.

With `N#Cc1ccc(S[C@@H]2O[C@H](CO)[C@@H](O)[C@H](O)[C@H]2O)nc1` [Glc-p-MPN], the Km in assay [1] amounted to 162 µM.
Turning to `N#Cc1cccnc1S[C@@H]1O[C@H](CO)[C@@H](O)[C@H](O)[C@H]1O` [Glc-o-MPN], the Km in assay [2] amounted to 228 µM.
